Values after ≈ are worked out from the molar mass of the structure shown. Values joined by “and” are separate entries in the source; they are usually repeats but may differ in a detail not shown here. Identical values can stand only once.
Columns and labels:
Format in all cases: functional
Proteus sp. = test: Antibacterial activity against Proteus sp. assessed as inhibition of bacterial growth incubated for 24 hrs by microbroth dilution method
Vibrio parahaemolyticus = test: Antibacterial activity against Vibrio parahaemolyticus assessed as inhibition of bacterial growth incubated for 24 hrs by microbroth dilution method
Bacillus cereus = test: Antibacterial activity against Bacillus cereus assessed as inhibition of bacterial growth incubated for 24 hrs by microbroth dilution method
Staphylococcus aureus = test: Antibacterial activity against methicillin-resistant Staphylococcus aureus assessed as inhibition of bacterial growth incubated for 24 hrs by microbroth dilution method
Candida albicans = test: Antifungal activity against monilia albicans assessed as inhibition of fungal growth incubated for 24 hrs by microbroth dilution method
Mycolicibacterium phlei = test: Antibacterial activity against Mycobacterium phlei assessed as inhibition of bacterial growth incubated for 24 hrs by microbroth dilution method
Bacillus subtilis = test: Antibacterial activity against Bacillus subtilis assessed as inhibition of bacterial growth incubated for 24 hrs by microbroth dilution method
[1] = Proteus sp. (in: enterobacteria), read-out: MIC
[2] = Mycolicibacterium phlei, read-out: MIC
[3] = Bacillus subtilis, read-out: MIC

| Compound | MIC (Proteus sp.; [1]) [µM] | MIC (Vibrio parahaemolyticus) [µM] | MIC (Bacillus cereus; Bacillus cereus, read-out: MIC) [µM] | MIC (Staphylococcus aureus) [µM] | MIC (Candida albicans) [µM] | MIC (Mycolicibacterium phlei; [2]) [µM] | MIC (Bacillus subtilis; [3]) [µM] | MIC (Bacillus subtilis) | MIC (Proteus sp.) [µM] | MIC (Bacillus cereus) [µM] | MIC (Mycolicibacterium phlei) |
| --- | --- | --- | --- | --- | --- | --- | --- | --- | --- | --- | --- |
| O=c1c(-c2ccc(O)cc2)coc2cc(O)ccc12 [DAIDZEIN] | > 50 | > 50 | > 50 | > 50 | > 50 | > 50 | > 50 |  |  |  |  |
| O=c1c(-c2ccc(O)c(Oc3ccc(-c4coc5c(Cl)c(O)cc(O)c5c4=O)cc3)c2)coc2cc(O)ccc12 | > 50 | 3.1 (≈ 1.73 µg/mL) | > 50 | > 50 | 1.6 (≈ 0.891 µg/mL) | > 50 | 1.6 (≈ 0.891 µg/mL) |  |  |  |  |
| COc1cc(-c2coc3cc(O)c(-c4cc(-c5coc6cc(O)ccc6c5=O)ccc4O)cc3c2=O)ccc1O | 12 (≈ 6.44 µg/mL) | 50 (≈ 26.8 µg/mL) | 12 (≈ 6.44 µg/mL) | > 50 | > 50 | 12 (≈ 6.44 µg/mL) | 12 (≈ 6.44 µg/mL) |  |  |  |  |
| NYSTATIN |  |  |  |  | 25 |  |  |  |  |  |  |
| O=c1c(-c2ccc(O)c(-c3c(O)cc(O)c4c(=O)c(-c5ccc(O)cc5)coc34)c2)coc2cc(O)cc(O)c12 | 0.8 (≈ 0.431 µg/mL) | 0.8 (≈ 0.431 µg/mL) | 3.1 (≈ 1.67 µg/mL) | 0.8 (≈ 0.431 µg/mL) | > 50 | 0.8 (≈ 0.431 µg/mL) | 0.8 (≈ 0.431 µg/mL) |  |  |  |  |
| O=c1c(-c2ccc(O)c(-c3cc(-c4coc5c(Cl)c(O)cc(O)c5c4=O)ccc3O)c2)coc2cc(O)cc(O)c12 | > 50 | 1.6 (≈ 0.917 µg/mL) | > 50 | > 50 | 1.6 (≈ 0.917 µg/mL) | > 50 | > 50 |  |  |  |  |
| O=c1c(-c2ccc(O)c(Oc3ccc(-c4coc5c(Cl)c(O)ccc5c4=O)cc3)c2)coc2cc(O)ccc12 | > 50 | 0.8 (≈ 0.433 µg/mL) | > 50 | > 50 | 1.6 (≈ 0.865 µg/mL) | > 50 | 0.8 (≈ 0.433 µg/mL) |  |  |  |  |
| O=c1c(-c2ccc(Oc3c(O)cc(O)c4c(=O)c(-c5ccc(O)cc5)coc34)cc2)coc2c(Cl)c(O)ccc12 | > 50 | > 50 | > 50 | > 50 | > 50 | > 50 | 0.4 (≈ 0.223 µg/mL) |  |  |  |  |
| COc1c(O)ccc2c(=O)c(-c3ccc(O)c(-c4cc(-c5coc6cc(O)ccc6c5=O)ccc4O)c3)coc12 | > 50 | > 50 | 25 (≈ 13.4 µg/mL) | > 50 | > 50 | 25 (≈ 13.4 µg/mL) | 25 (≈ 13.4 µg/mL) |  |  |  |  |
| O=c1c(-c2ccc(O)c(-c3c(O)cc(O)c4c(=O)c(-c5ccc(O)cc5)coc34)c2)coc2cc(O)ccc12 | 12 (≈ 6.27 µg/mL) |  |  | > 50 | > 50 |  | 6.2 (≈ 3.24 µg/mL) | 12 µM (≈ 6.27 µg/mL) |  |  |  |
| O=c1c(-c2ccc(Oc3c(O)cc(O)c4c(=O)c(-c5ccc(O)cc5)coc34)cc2)coc2c(Cl)c(O)cc(O)c12 | > 50 | 3.1 (≈ 1.78 µg/mL) | > 50 | > 50 | 1.6 (≈ 0.917 µg/mL) | > 50 | 0.8 (≈ 0.458 µg/mL) |  |  |  |  |
| O=c1c(-c2ccc(O)cc2)coc2c(-c3cc(-c4coc5cc(O)cc(O)c5c4=O)ccc3O)c(O)ccc12 | 50 (≈ 26.1 µg/mL) | 50 (≈ 26.1 µg/mL) | 6.2 (≈ 3.24 µg/mL) |  | > 50 |  |  | 25 µM and 12 µM | 25 (≈ 13.1 µg/mL) | 12 (≈ 6.27 µg/mL) | 12 µM and 25 µM |
| O=C(O)c1cn(C2CC2)c2cc(N3CCNCC3)c(F)cc2c1=O [CIPROFLOXACIN] | 0.8 (≈ 0.265 µg/mL) | < 0.4 | < 0.4 | > 50 |  | < 0.4 | < 0.4 |  |  |  |  |
| O=c1c(-c2ccc(O)c(-c3c(O)ccc4c(=O)c(-c5ccc(O)cc5)coc34)c2)coc2cc(O)ccc12 | 50 (≈ 25.3 µg/mL) | 12 (≈ 6.08 µg/mL) | 3.1 (≈ 1.57 µg/mL) | > 50 | > 50 | 6.2 (≈ 3.14 µg/mL) | 6.2 (≈ 3.14 µg/mL) |  |  |  |  |
| O=c1c(-c2ccc(O)cc2)coc2cc(O)cc(O)c12 [GENISTEIN] | > 50 | > 50 | > 50 | > 50 | > 50 | > 50 | > 50 |  |  |  |  |
